According to patent publication US10736883B2, “Triazole furan compounds as agonists of the APJ receptor” (AMGEN INC., priority 2016, dated 2020):

The compounds below were run against APJ receptor (Homo sapiens (Human), UniProt P35414) (assay: [35S]GTPγS binding assay on membranes from CHO cells stably expressing human APJ receptor). Conditions: membranes of CHO cells stably expressing human APJ receptor, means of several independent experiments, read-out: Activity hAPJ SPA EC50 IP.
Assay type: biochemical
Procedure, shortened: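 EC50 values were obtained by non-linear regression of [35S]GTPγS (0.2 nM) binding after 90 min at RT, with nonspecific binding defined by 100 μM GTPγS. Reactions used human APJ–expressing CHO cell membranes on WGA PS beads in HEPES pH 7.5 buffer with 5 mM MgCl2, 200 mM NaCl, 3 μM GDP and 0.1% BSA.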

Sequence of APJ receptor (P35414 whole entry): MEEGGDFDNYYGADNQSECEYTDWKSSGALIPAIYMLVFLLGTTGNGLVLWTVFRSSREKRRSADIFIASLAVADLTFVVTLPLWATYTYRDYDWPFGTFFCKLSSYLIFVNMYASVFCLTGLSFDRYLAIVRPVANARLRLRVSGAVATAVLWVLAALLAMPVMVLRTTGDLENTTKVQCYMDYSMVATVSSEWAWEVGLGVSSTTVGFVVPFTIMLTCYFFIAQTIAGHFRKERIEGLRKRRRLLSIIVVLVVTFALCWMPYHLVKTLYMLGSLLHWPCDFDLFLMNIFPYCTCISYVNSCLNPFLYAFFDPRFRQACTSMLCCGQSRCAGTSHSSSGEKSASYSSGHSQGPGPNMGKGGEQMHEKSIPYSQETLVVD

Row | SMILES | EC50 [nM]
1 | COc1cccc(OC)c1-n1c(NS(=O)(=O)CCN2C(=O)[C@@H](C)C[C@]2(C)C#N)nnc1-c1ccco1 (single isomer, unassigned) [Example 168.0] | 0.97
2 | COc1cccc(OC)c1-n1c(NS(=O)(=O)[C@H]2C[C@H](OC)CN(c3ncc(F)cn3)C2)nnc1-c1ccco1 (single isomer, unassigned) [Example 178.0] | 3
3 | COc1cccc(OC)c1-n1c(NS(=O)(=O)CCc2ccc(F)cc2C#N)nnc1-c1ccc(C)o1 [Example 119.0, 2-(2-Cyano-4-fluorophenyl)-N-(4-(2,6-dimethoxyphenyl)-5-(5-methylfuran-2-yl)-4H-1,2,4-triazol-3-yl)ethanesulfonamide] | 0.15
4 | COCC(COC)n1c(NS(=O)(=O)[C@@H](C)[C@H](OC)c2ncc(Cl)cn2)nnc1-c1ccc(C)o1 [Example 387.0, (1R,2S)-1-(5-chloro-2-pyrimidinyl)-N-(4-(1,3-dimethoxy-2-propanyl)-5-(5-methyl-2-furanyl)-4H-1,2,4-triazol-3-yl)-1-methoxy-2-propanesulfonamide] | 2.1
5 | COc1cccc(OC)c1-n1c(NS(=O)(=O)[C@@H](C)[C@@H](O)c2cn3ccccc3n2)nnc1-c1ccc(C)o1 (single isomer, unassigned) [Example 308.0, (1S,2S)—N-(4-(2,6-Dimethoxyphenyl)-5-(5-methyl-2-furanyl)-4H-1,2,4-triazol-3-yl)-1-hydroxy-1-imidazo[1,2-a]pyridin-2-yl-2-propanesulfonamide or (1R,2R)—N-(4-(2,6-dimethoxyphenyl)-5-(5-methyl-2-furanyl)-4H-1,2,4-triazol-3-yl)-1-hydroxy-1-imidazo[1,2-a]pyridin-2-yl-2-propanesulfonamide] | 33
6 | COc1cccc(OC)c1-n1c(NS(=O)(=O)[C@@H](C)[C@H](O)c2ccc(C#N)cn2)nnc1-c1ccc(C)o1 (single isomer, unassigned) [Example 40.0, (1R,2S)-1-(5-cyano-2-pyridinyl)-N-(4-(2,6-dimethoxyphenyl)-5-(5-methyl-2-furanyl)-4H-1,2,4-triazol-3-yl)-1-hydroxy-2-propanesulfonamide or (1S,2R)-1-(5-cyano-2-pyridinyl)-N-(4-(2,6-dimethoxyphenyl)-5-(5-methyl-2-furanyl)-4H-1,2,4-triazol-3-yl)-1-hydroxy-2-propanesulfonamide] | 11
7 | COc1cccc(OC)c1-n1c(NS(=O)(=O)[C@@H](C)[C@@](C)(O)c2ccc(C#N)cn2)nnc1-c1ccc(C)o1 (single isomer, unassigned) [Example 227.0] | 0.35
8 | COc1cccc(OC)c1-n1c(NS(=O)(=O)[C@@H](C)[C@H](O)c2cc3n(n2)CCCO3)nnc1-c1ccc(C)o1 (single isomer, unassigned) [Example 292.0, (1R,2S)-1-(6,7-Dihydro-5H-pyrazolo[5,1-b][1,3]oxazin-2-yl)-N-(4-(2,6-dimethoxyphenyl)-5-(5-methyl-2-furanyl)-4H-1,2,4-triazol-3-yl)-1-hydroxy-2-propanesulfonamide or (1S,2R)-1-(6,7-dihydro-5H-pyrazolo[5,1-b][1,3]oxazin-2-yl)-N-(4-(2,6-dimethoxyphenyl)-5-(5-methyl-2-furanyl)-4H-1,2,4-triazol-3-yl)-1-hydroxy-2-propanesulfonamide] | 5.1
9 | COc1cccc(OC)c1-n1c(NS(=O)(=O)CCc2ccc(F)cc2C#N)nnc1-c1ccc(C(F)(F)F)o1 [Example 131.0, 2-(2-Cyano-4-fluorophenyl)-N-(4-(2,6-dimethoxyphenyl)-5-(5-(trifluoromethyl)furan-2-yl)-4H-1,2,4-triazol-3-yl)ethanesulfonamide] | 3.9
10 | COC[C@@H]1CCCC(=O)N1C[C@H](C)S(=O)(=O)Nc1nnc(-c2ccc(C)o2)n1-c1c(OC)cccc1OC (racemic) [Example 151.0] | 0.24
11 | COc1cccc(OC)c1-n1c(NS(=O)(=O)[C@H]2C[C@@H](O)CN(c3cc(C#N)ccn3)C2)nnc1-c1ccc(C)o1 (racemic) [Example 333.0, (3S,5R)-1-(4-Cyanopyridin-2-yl)-N-(4-(2,6-dimethoxyphenyl)-5-(5-methylfuran-2-yl)-4H-1,2,4-triazol-3-yl)-5-hydroxypiperidine-3-sulfonamide and (3R,5S)-1-(4-cyanopyridin-2-yl)-N-(4-(2,6-dimethoxyphenyl)-5-(5-methylfuran-2-yl)-4H-1,2,4-triazol-3-yl)-5-hydroxypiperidine-3-sulfonamide] | 0.45
12 | COc1cccc(OC)c1-n1c(NS(=O)(=O)[C@@H](C)[C@H](O)c2cccc3ccnn23)nnc1-c1ccc(C)o1 (single isomer, unassigned) [Example 267.0, (1R,2S)—N-(4-(2,6-Dimethoxyphenyl)-5-(5-methyl-2-furanyl)-4H-1,2,4-triazol-3-yl)-1-hydroxy-1-pyrazolo[1,5-a]pyridin-7-yl-2-propanesulfonamide or (1S,2R)—N-(4-(2,6-dimethoxyphenyl)-5-(5-methyl-2-furanyl)-4H-1,2,4-triazol-3-yl)-1-hydroxy-1-pyrazolo[1,5-a]pyridin-7-yl-2-propanesulfonamide] | 0.43
13 | COc1cccc(OC)c1-n1c(NS(=O)(=O)C[C@@](C)(O)c2ncc(F)cn2)nnc1-c1ccc(C)o1 (single isomer, unassigned) [Example 249.0] | 2.5
14 | COc1cccc(OC)c1-n1c(NS(=O)(=O)[C@@H](C)[C@H](O)c2cn(C)cn2)nnc1-c1ccc(C)o1 (single isomer, unassigned) [Example 273.0, (1R,2S)—N-(4-(2,6-Dimethoxyphenyl)-5-(5-methyl-2-furanyl)-4H-1,2,4-triazol-3-yl)-1-hydroxy-1-(1-methyl-1H-imidazol-4-yl)-2-propanesulfonamide or (1S,2R)—N-(4-(2,6-dimethoxyphenyl)-5-(5-methyl-2-furanyl)-4H-1,2,4-triazol-3-yl)-1-hydroxy-1-(1-methyl-1H-imidazol-4-yl)-2-propanesulfonamide] | 0.72
15 | COCC[C@@H]([C@H](C)c1ncc(F)cn1)S(=O)(=O)Nc1nnc(-c2ccc(C)o2)n1-c1c(OC)cccc1OC (racemic) [Example 74.0] | 0.54
16 | COc1cccc(OC)c1-n1c(NS(=O)(=O)[C@@H](C)[C@@H](O)c2ccc(F)cn2)nnc1-c1ccc(C)o1 (single isomer, unassigned) [Example 79.0] | 0.98
17 | COc1ccccc1-n1c(NS(=O)(=O)[C@@H](C)Cc2ncc(F)cn2)nnc1-c1ccco1.COc1ccccc1-n1c(NS(=O)(=O)[C@H](C)Cc2ncc(F)cn2)nnc1-c1ccco1 (mixture of isomers) [Example 310.0, (2S)-1-(5-Fluoro-2-pyrimidinyl)-N-(5-(2-furanyl)-4-(2-methoxyphenyl)-4H-1,2,4-triazol-3-yl)-2-propanesulfonamide and (2R)-1-(5-fluoro-2-pyrimidinyl)-N-(5-(2-furanyl)-4-(2-methoxyphenyl)-4H-1,2,4-triazol-3-yl)-2-propanesulfonamide] | 83
18 | COC[C@@H](Cc1ncc(F)cn1)S(=O)(=O)Nc1nnc(-c2ccc(C)o2)n1-c1c(OC)cccc1OC (single isomer, unassigned) [Example 72.0, (2R)—N-(4-(2,6-Dimethoxyphenyl)-5-(5-methyl-2-furanyl)-4H-1,2,4-triazol-3-yl)-1-(5-fluoro-2-pyrimidinyl)-3-methoxy-2-propanesulfonamide or (2S)—N-(4-(2,6-dimethoxyphenyl)-5-(5-methyl-2-furanyl)-4H-1,2,4-triazol-3-yl)-1-(5-fluoro-2-pyrimidinyl)-3-methoxy-2-propanesulfonamide] | 0.48
